In the NIST ThermoML archive (doi:10.1021/je1005517) one finds activity coefficient data, which are given here for 19 compounds.

This data set is described as follows: activity coefficient (dimensionless); of the first substance listed, at infinite dilution; xn = mol fraction of the nth substance listed. Conditions: Liquid, GC, x1 = 0.

Numbers after ± are expanded uncertainties.

Regarding `ClCCl` [dichloromethane] + CCCCCCCCCCCCCCCCCCCCO, the activity coefficient by setting is: (338.15 K, 101 kPa) 0.079 ± 0.0047; (343.15 K, 101 kPa) 0.0642 ± 0.0039; (348.15 K, 101 kPa) 0.0532 ± 0.0032; (353.15 K, 101 kPa) 0.0435 ± 0.0026.

Regarding `ClCCl` [dichloromethane] + CCCCCCCCCCCCCCCCCCO, the activity coefficient (333.15 K, 101.3 kPa) is 0.0262 ± 0.0016; the activity coefficient (338.15 K, 101.3 kPa) amounted to 0.0233 ± 0.0014; the activity coefficient (343.15 K, 101.3 kPa) was determined as 0.0212 ± 0.0013; the activity coefficient (348.15 K, 101.3 kPa) stood at 0.0194 ± 0.0012; the activity coefficient (353.15 K, 101.3 kPa) worked out at 0.0178 ± 0.0011.

On to `CCOCC` [diethyl ether] + CCCCCCCCCCCCCCCCCCCCO, for which the activity coefficient (338.15 K, 101 kPa) was 0.0652 ± 0.0039; the activity coefficient (343.15 K, 101 kPa) was 0.0624 ± 0.0037; the activity coefficient (348.15 K, 101 kPa) came out at 0.0598 ± 0.0036; the activity coefficient (353.15 K, 101 kPa) is 0.0572 ± 0.0034.

`CCOCC` [diethyl ether] + CCCCCCCCCCCCCCCCCCO: the activity coefficient by setting is: (333.15 K, 101 kPa) 0.0257 ± 0.0015; (338.15 K, 101 kPa) 0.0235 ± 0.0014; (343.15 K, 101 kPa) 0.0219 ± 0.0013; (348.15 K, 101 kPa) 0.0204 ± 0.0012; (353.15 K, 101 kPa) 0.019 ± 0.001.

On to `CCO` [ethanol] + CCCCCCCCCCCCCCCCCCCCO, for which the activity coefficient turned out to be 0.124 ± 0.0075 (338.15 K, 101 kPa); 0.117 ± 0.007 (343.15 K, 101 kPa); 0.106 ± 0.0063 (348.15 K, 101 kPa); 0.095 ± 0.0057 (353.15 K, 101 kPa).

Take `CCO` [ethanol] + CCCCCCCCCCCCCCCCCCO: the activity coefficient runs as follows: (333.15 K, 101.3 kPa) 0.0433 ± 0.0026; (338.15 K, 101.3 kPa) 0.0396 ± 0.0024; (343.15 K, 101.3 kPa) 0.0369 ± 0.0022; (348.15 K, 101.3 kPa) 0.0343 ± 0.0021; (353.15 K, 101.3 kPa) 0.032 ± 0.002.

As for `CCOC(C)=O` [ethyl acetate] + CCCCCCCCCCCCCCCCCCCCO, the activity coefficient reads like this: (338.15 K, 101 kPa) 0.123 ± 0.0074; (343.15 K, 101 kPa) 0.11 ± 0.0066; (348.15 K, 101 kPa) 0.099 ± 0.0059; (353.15 K, 101 kPa) 0.0888 ± 0.0053.

`CCOC(C)=O` [ethyl acetate] + CCCCCCCCCCCCCCCCCCO: the activity coefficient reads like this: (333.15 K, 101.3 kPa) 0.0445 ± 0.0027; (338.15 K, 101.3 kPa) 0.0408 ± 0.0024; (343.15 K, 101.3 kPa) 0.0384 ± 0.0023; (348.15 K, 101.3 kPa) 0.036 ± 0.0022; (353.15 K, 101.3 kPa) 0.0335 ± 0.002.

Take `CCCCCC` [hexane] + CCCCCCCCCCCCCCCCCCCCO: the activity coefficient was found to be 0.129 ± 0.0077 (338.15 K, 101 kPa); 0.124 ± 0.0074 (343.15 K, 101 kPa); 0.119 ± 0.0072 (348.15 K, 101 kPa); 0.115 ± 0.0069 (353.15 K, 101 kPa).

As to `CCCCCC` [hexane] + CCCCCCCCCCCCCCCCCCO, the activity coefficient reads like this: (333.15 K, 101 kPa) 0.0551 ± 0.0033; (338.15 K, 101 kPa) 0.0468 ± 0.0028; (343.15 K, 101 kPa) 0.0411 ± 0.0025; (348.15 K, 101 kPa) 0.0359 ± 0.0022; (353.15 K, 101 kPa) 0.0315 ± 0.0019.

`CO` [methanol] + CCCCCCCCCCCCCCCCCCCCO: the activity coefficient is, setting by setting: (338.15 K, 101 kPa) 0.122 ± 0.0073; (343.15 K, 101 kPa) 0.0967 ± 0.0058; (348.15 K, 101 kPa) 0.0737 ± 0.0044; (353.15 K, 101 kPa) 0.0574 ± 0.0034.

Regarding `CO` [methanol] + CCCCCCCCCCCCCCCCCCO, the activity coefficient (333.15 K, 101 kPa) was determined as 0.0423 ± 0.0025; the activity coefficient (338.15 K, 101 kPa) worked out at 0.0386 ± 0.0023; the activity coefficient (343.15 K, 101 kPa) came out at 0.0357 ± 0.0021; the activity coefficient (348.15 K, 101 kPa) turned out to be 0.033 ± 0.002; the activity coefficient (353.15 K, 101 kPa) came out at 0.0306 ± 0.0018.

Turning to `CCCCCCCC` [octane] + CCCCCCCCCCCCCCCCCCCCO, the activity coefficient turned out to be 0.187 ± 0.011 (338.15 K, 101 kPa); 0.161 ± 0.0096 (343.15 K, 101 kPa); 0.138 ± 0.0083 (348.15 K, 101 kPa); 0.12 ± 0.0072 (353.15 K, 101 kPa).

In the case of `CCCCCCCC` [octane] + CCCCCCCCCCCCCCCCCCO, the activity coefficient came to 0.0513 ± 0.0031 (333.15 K, 101 kPa); 0.0497 ± 0.003 (338.15 K, 101 kPa); 0.0485 ± 0.0029 (343.15 K, 101 kPa); 0.0473 ± 0.0028 (348.15 K, 101 kPa); 0.0461 ± 0.0028 (353.15 K, 101 kPa).

As to `CCCCC` [pentane] + CCCCCCCCCCCCCCCCCCCCO, the activity coefficient was determined as 0.0954 ± 0.0057 (338.15 K, 101 kPa); 0.0801 ± 0.0048 (343.15 K, 101 kPa); 0.0668 ± 0.004 (348.15 K, 101 kPa); 0.0564 ± 0.0034 (353.15 K, 101 kPa).

Take `CCCCC` [pentane] + CCCCCCCCCCCCCCCCCCO: the activity coefficient by setting is: (333.15 K, 101 kPa) 0.0292 ± 0.0018; (338.15 K, 101 kPa) 0.0272 ± 0.0016; (343.15 K, 101 kPa) 0.0259 ± 0.0016; (348.15 K, 101 kPa) 0.0243 ± 0.0015; (353.15 K, 101 kPa) 0.0231 ± 0.0014.

Turning to `CCCO` [propan-1-ol] + CCCCCCCCCCCCCCCCCCCCO, the activity coefficient by setting is: (338.15 K, 101 kPa) 0.213 ± 0.013; (343.15 K, 101 kPa) 0.193 ± 0.012; (348.15 K, 101 kPa) 0.175 ± 0.011; (353.15 K, 101 kPa) 0.159 ± 0.0095.

Consider `CCCO` [propan-1-ol] + CCCCCCCCCCCCCCCCCCO, for which the activity coefficient was 0.0722 ± 0.0043 (333.15 K, 101.3 kPa); 0.0625 ± 0.0038 (338.15 K, 101.3 kPa); 0.0597 ± 0.0036 (343.15 K, 101.3 kPa); 0.055 ± 0.003 (348.15 K, 101.3 kPa); 0.051 ± 0.003 (353.15 K, 101.3 kPa).

As to `ClC(Cl)(Cl)Cl` [tetrachloromethane] + CCCCCCCCCCCCCCCCCCCCO, the activity coefficient was 0.0862 ± 0.0052 (338.15 K, 101 kPa); 0.081 ± 0.0049 (343.15 K, 101 kPa); 0.076 ± 0.0046 (348.15 K, 101 kPa); 0.0714 ± 0.0043 (353.15 K, 101 kPa).
